What was measured:
[1] = Stability in simulated intestinal fluid; format: in vitro ADME; details: 37° C.; for % degradation in 24 h when incubated with simulated intestinal fluid / half-life (t1/2) in simulated intestinal fluid: 2 μM, pH 7.5; for half-life at 2 μM: simulated intestinal fluid, pH 7.5, read-out: half-life (t1/2) in simulated intestinal fluid
Outline: (§1)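 First, each incubation is terminated using TFA in water (10% v/v). Next, samples run through a TFA/H2O-equilibrated column at 1 mL/min, with 206 nm monitoring. Finally, manually collected fractions go to electrospray MS.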

[2] = tested on: RIN5F (Rat Insulinoma) cells; experiment: In vitro glucose-dependent insulin secretion (RIN5F cell assay); format: cell-based; details: 16.7 mM glucose load, mean ± S.D., n = 3
Protocol: After trypsinization, RIN5F cells were seeded at a concentration of 0.2×10^6·cells per well, in 12 well plates.
The supernatant was collected and the insulin amount was measured by ultra sensitive Rat insulin ELISA kit (Crystal Chem, Ill.). The protein was estimated in the supernatant using Bicinchoninic Acid kit, according to the manufacturer's protocol (Sigma Aldrich, Mo.). The total insulin content obtained in Pico-gram (pg) was divided with the total protein (μg) in order to normalize for differences in cell density between wells.

DPP IV = DPP IV (Homo sapiens, UniProt P27487); experiment: Stability against DPP IV enzyme; format: in vitro ADME; details: for % degradation in 24 h when incubated with DPP-IV enzyme: 2 μM, 37° C.; for half-life at 2 μM: DPP IV enzyme, pH 7.8, 37° C., read-out: half-life (t1/2) with DPP-IV enzyme
Outline: as §1

[3] = Stability against liver microsomes; format: in vitro ADME, human; details: for % degradation in 24 h when incubated with liver microsomes: 2 μM, 37° C.; for half-life at 2 μM: human, human liver microsomes, pH 7.8, 37° C., read-out: half-life (t1/2) with liver microsomes
Outline: as §1

human glucagon receptor = biological target: T1, human glucagon receptor (Homo sapiens, UniProt P47871); experiment: In vitro human glucagon antagonist activity (inhibition of cAMP production), CHO/human glucagon R cells; format: cell-based
T1 construct: The full-length cDNA was cloned in pcDNA3.1(Invitrogen); expressed in transfected cells
Protocol: CHO cells were grown in Ham's F12 medium containing L-Glutamine (2 mM), HEPES (25 mM), NaHCO3 (1.1 g/L) and supplemented with newborn Calf Serum (NBCS; 10%), Penicillin (50 U/ml (v/v)) and Streptomycin (50 ug/ml (v/v)). Cells were split every 3 days 1:8.
The full-length cDNA was cloned in pcDNA3.1(Invitrogen). […] Clones expressing the receptor were generated by G418 (800 μg/ml active, Sigma) selection. The stable clones were thereafter maintained at 500 ug/ml (G418). The selected clone was used between passages 9-25 for cAMP assays.
The trypsin was inactivated using Ham's F12 medium containing 10% NBCS and the cells were suspended in 2 ml of complete medium. […] The medium was aspirated off from the 12 well plate and the cells were washed once using Ham's F12 (plain). […] After the incubation; the medium was removed and cells were washed once with plain Ham's F12. Subsequently, the cells were lysed by adding 500 ul of ice cold 0.1 N HCl to each well and shaking for 30 minutes at 200 rpm. The cells were then scrapped, the lysate was collected in micro centrifuge tubes and centrifuged at 12000 rpm for 10 min to remove the debris. 300 ul of supernatant from each micro-centrifuge tube was then removed into a glass tube and dried under N2 for 30 min, for cAMP estimation. The total cAMP was estimated from the sample according to the manufacturer's protocol using Cyclic AMP immunoassay kit (R&D systems, Minneapolis: MN). The remaining supernatant is used to determine the protein concentration using micro BCA (Sigma). Data is calculated as percent of control (Vehicle: water) and expressed as Mean+SD.

[4] = Stability in human plasma; format: in vitro ADME; details: for % degradation in 24 h when incubated with human plasma / half-life (t1/2) in human plasma: 2 μM, 37° C.; for half-life at 2 μM: human, pooled human plasma, pH 7.8, 37° C., read-out: half-life (t1/2) in human plasma
Outline: as §1

[5] = Stability in simulated gastric fluid; format: in vitro ADME; details: 37° C., pH 1.5, pepsin; for % degradation in 24 h when incubated with simulated gastric fluid / half-life (t1/2) in simulated gastric fluid: 2 μM; for half-life at 2 μM: simulated gastric fluid with pepsin, read-out: half-life (t1/2) in simulated gastric fluid
Outline: as §1

[6] = 1 nM test compound (fourth concentration column, between 100 nM and 10 μM) with saturated concentration of glucagon peptide
[7] = 1 nM test compound with saturated concentration of glucagon peptide
[8] = 10 nM test compound with saturated concentration of glucagon peptide
[9] = 100 nM test compound with saturated concentration of glucagon peptide
[10] = 10 μM test compound with saturated concentration of glucagon peptide

Sequence of DPP IV (P27487 whole entry, species assumed): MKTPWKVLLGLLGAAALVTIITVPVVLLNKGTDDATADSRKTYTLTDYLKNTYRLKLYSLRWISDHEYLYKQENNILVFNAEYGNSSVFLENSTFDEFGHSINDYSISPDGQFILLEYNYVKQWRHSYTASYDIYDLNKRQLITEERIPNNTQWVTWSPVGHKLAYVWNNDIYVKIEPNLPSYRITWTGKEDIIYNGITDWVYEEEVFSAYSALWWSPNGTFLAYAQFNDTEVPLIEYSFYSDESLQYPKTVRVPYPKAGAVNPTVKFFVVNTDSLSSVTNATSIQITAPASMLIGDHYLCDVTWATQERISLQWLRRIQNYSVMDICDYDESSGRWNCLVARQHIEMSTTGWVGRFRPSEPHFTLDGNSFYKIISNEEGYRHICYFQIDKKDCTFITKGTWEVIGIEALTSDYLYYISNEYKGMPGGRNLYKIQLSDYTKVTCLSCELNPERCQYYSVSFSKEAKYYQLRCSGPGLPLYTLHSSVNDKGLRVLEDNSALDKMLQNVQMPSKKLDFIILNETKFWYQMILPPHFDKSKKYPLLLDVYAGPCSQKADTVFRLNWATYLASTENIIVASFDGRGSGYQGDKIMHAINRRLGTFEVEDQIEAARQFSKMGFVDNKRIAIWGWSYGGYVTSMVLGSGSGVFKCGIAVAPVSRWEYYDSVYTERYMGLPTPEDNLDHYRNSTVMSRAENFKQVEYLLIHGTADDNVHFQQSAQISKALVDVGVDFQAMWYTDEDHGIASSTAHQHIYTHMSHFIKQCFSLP
T1 sequence (P47871 26-477): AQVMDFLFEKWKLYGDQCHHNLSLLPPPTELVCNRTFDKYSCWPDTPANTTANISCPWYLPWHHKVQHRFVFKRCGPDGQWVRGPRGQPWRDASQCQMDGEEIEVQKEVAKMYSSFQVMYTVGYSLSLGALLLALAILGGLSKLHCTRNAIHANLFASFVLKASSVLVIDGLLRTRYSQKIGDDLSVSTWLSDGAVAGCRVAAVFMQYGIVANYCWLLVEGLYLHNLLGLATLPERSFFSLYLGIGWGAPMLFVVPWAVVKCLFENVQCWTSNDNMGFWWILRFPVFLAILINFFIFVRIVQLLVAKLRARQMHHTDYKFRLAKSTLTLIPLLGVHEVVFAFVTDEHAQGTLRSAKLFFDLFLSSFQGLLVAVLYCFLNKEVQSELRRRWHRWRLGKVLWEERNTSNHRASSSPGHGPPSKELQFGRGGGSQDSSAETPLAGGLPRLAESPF

Row | Compound | % degradation in 24 h when incubated with simulated intestinal fluid [1] [%] | half-life (t1/2) in simulated intestinal fluid [1] | Insulin secretion ([2]; 0.1 nM test compd.) [pg/µg/h] | Insulin secretion ([2]; 1 nM test compd.) [pg/µg/h] | Insulin secretion ([2]; 10 nM test compd.) [pg/µg/h] | % degradation in 24 h when incubated with DPP-IV enzyme (DPP IV) [%] | half-life at 2 μM (DPP IV) [h] | % degradation in 24 h when incubated with liver microsomes [3] [%] | half-life at 2 μM [3] [h] | Human Glucagon receptor antagonistic activity, inhibition of cAMP production of Glucagon peptide (human glucagon receptor; [6]) [pmol/ml/μg prt] | Human Glucagon receptor antagonistic activity, inhibition of cAMP production of Glucagon peptide (human glucagon receptor; [7]) [pmol/ml/μg prt] | Human Glucagon receptor antagonistic activity, inhibition of cAMP production of Glucagon peptide (human glucagon receptor; [8]) [pmol/ml/μg prt] | Human Glucagon receptor antagonistic activity, inhibition of cAMP production of Glucagon peptide (human glucagon receptor; [9]) [pmol/ml/μg prt] | Human Glucagon receptor antagonistic activity, inhibition of cAMP production of Glucagon peptide (human glucagon receptor; [10]) [pmol/ml/μg prt] | % degradation in 24 h when incubated with human plasma [4] [%] | half-life at 2 μM [4] [h] | % degradation in 24 h when incubated with simulated gastric fluid [5] [%] | half-life (t1/2) in simulated gastric fluid [5] | half-life at 2 μM [1] [h] | half-life (t1/2) in human plasma [4] | other results
1 | CCc1cc(OC)ccc1-c1ccc(CC(NC(=O)[C@H](CC(=O)O)NC(=O)[C@H](CO)NC(=O)[C@@H](NC(=O)C(C)(Cc2ccccc2F)NC(=O)[C@@H](NC(=O)CNC(=O)[C@H](CCC(N)=O)NC(=O)[C@H](CO)NC(=O)[C@@H](N)Cc2c[nH]cn2)[C@@H](C)O)[C@@H](C)O)C(=O)NC(Cc2ccc(-c3ccccc3C)cc2)C(N)=O)cc1 (single isomer, unassigned) [compound 21] | 55 | (6) h | 12.3 ± 0.33 | 14.1 ± 0.36 | 28.0 ± 0.16 | 76 | 9 | 79 | 1 | 14 ± 0.02 | 19 ± 0.03 | 17 ± 0.08 | 15 ± 0.01 | 12 ± 0.11 | 78 | 8 | 12 | (8) h |  |  | 
2 | CCc1cc(OC)ccc1-c1ccc(CC(NC(=O)[C@H](CC(=O)O)NC(=O)[C@H](CO)NC(=O)[C@@H](NC(=O)[C@H](Cc2ccccc2)NC(=O)[C@@H](NC(=O)CNC(=O)[C@H](CCC(N)=O)NC(=O)[C@H](C)NC(=O)[C@@H](N)Cc2c[nH]cn2)[C@@H](C)O)[C@@H](C)O)C(=O)NC(Cc2ccc(-c3ccccc3C(F)(F)F)cc2)C(N)=O)cc1 (single isomer, unassigned) [compound 12] | 100 |  | 12.9 ± 0.14 | 15.8 ± 0.13 | 29.9 ± 0.15 | 72 |  | 100 | 0.5 | 0 | 5 ± 0.09 | 3 ± 0.11 | 0 | 0 | 70 |  | 100 |  | 0.5 | (9) h | half-life at 2 μM [5]: 0.5 h
3 | CCc1cc(OC)ccc1-c1ccc(CC(NC(=O)[C@H](CC(=O)O)NC(=O)[C@H](CO)NC(=O)[C@@H](NC(=O)C(C)(Cc2ccccc2F)NC(=O)[C@@H](NC(=O)CNC(=O)[C@H](CCC(N)=O)NC(=O)[C@H](CO)NC(=O)[C@@H](N)Cc2c[nH]cn2)[C@@H](C)O)[C@@H](C)O)C(=O)NC(Cc2ccc(-c3ccccc3C(F)(F)F)cc2)C(N)=O)cc1 (single isomer, unassigned) [compound 24] | 43 | (6) h | 12.3 ± 0.33 | 14.8 ± 0.16 | 28.1 ± 0.22 | 76 | 9 | 80 | 1 | 0 | 4 ± 0.09 | 2 ± 0.12 | 0 | 0 | 78 | 8 | 14 | (8) h |  |  | 
4 | CCc1cc(OC)ccc1-c1ccc(CC(NC(=O)[C@H](CC(=O)O)NC(=O)[C@H](CO)NC(=O)[C@@H](NC(=O)C(C)(Cc2ccccc2F)NC(=O)[C@@H](NC(=O)CNC(=O)[C@H](CCC(N)=O)NC(=O)[C@H](C)NC(=O)[C@@H](N)Cc2c[nH]cn2)[C@@H](C)O)[C@@H](C)O)C(=O)NC(Cc2ccc(-c3ccccc3C)cc2)C(N)=O)cc1 (single isomer, unassigned) [compound 25] | 46 | (6) h | 12.4 ± 0.22 | 15.2 ± 0.32 | 29.6 ± 0.50 | 74 | 9 | 83 | 1 | 8 ± 0.12 | 18 ± 0.12 | 16 ± 0.11 | 12 ± 0.13 | 6 ± 0.18 | 75 | 8 | 12 | (8) h |  |  | 
5 | CCc1cc(OC)ccc1-c1ccc(CC(NC(=O)[C@H](CC(=O)O)NC(=O)[C@H](CO)NC(=O)[C@@H](NC(=O)[C@H](Cc2ccccc2)NC(=O)[C@@H](NC(=O)CNC(=O)[C@H](CCC(N)=O)NC(=O)[C@H](C)NC(=O)[C@@H](N)Cc2c[nH]cn2)[C@@H](C)O)[C@@H](C)O)C(=O)NC(Cc2ccc(-c3ccccc3C)cc2)C(N)=O)cc1 (single isomer, unassigned) [compound 9] | 100 |  | 11.8 ± 0.50 | 14.9 ± 0.11 | 27.9 ± 0.31 | 74 |  | 100 | 0.5 | 8 ± 0.02 | 18 ± 0.07 | 16 ± 0.01 | 12 ± 0.03 | 6 ± 0.08 | 75 |  | 100 |  | 0.5 | (9) h | half-life at 2 μM [5]: 0.5 h

From patent US8841413B2, “Antidiabetic compounds” (Cadila Healthcare Limited, priority 2006, dated 2014)
